From ChEMBL document CHEMBL1777766, “Design, synthesis and in vitro antibacterial activity of 7-(4-alkoxyimino-3-aminomethylpiperidin-1-yl)fluoroquinolone derivatives” (Bioorg Med Chem Lett, 2011)
Converted amounts (≈) assume the structure as drawn.

Key:
Staphylococcus aureus [1] = assay: Antibacterial activity against methicillin-sensitive Staphylococcus aureus 08-49; format: functional
Staphylococcus aureus [2] = assay: Antibacterial activity against Staphylococcus aureus ATCC 13709; format: functional
Staphylococcus aureus [3] = assay: Antibacterial activity against methicillin-resistant Staphylococcus aureus 08-52; format: functional
[4] = tested on: Staphylococcus epidermidis; assay: Antibacterial activity against Staphylococcus epidermidis ATCC 12228; format: functional
[5] = tested on: Staphylococcus epidermidis; assay: Antibacterial activity against methicillin-sensitive Staphylococcus epidermidis 08-17; format: functional
[6] = tested on: Staphylococcus epidermidis; assay: Antibacterial activity against methicillin-resistant Staphylococcus epidermidis 08-18; format: functional
Enterococcus faecalis [7] = assay: Antibacterial activity against Enterococcus faecalis ATCC 51299; format: functional
Enterococcus faecalis [8] = assay: Antibacterial activity against vancomycin-resistant Enterococcus faecalis EFL1004; format: functional
Streptococcus pyogenes = assay: Antibacterial activity against Streptococcus pyogenes 556; format: functional
Escherichia coli [9] = assay: Antibacterial activity against Escherichia coli ATCC 25922; format: functional
Escherichia coli [10] = assay: Antibacterial activity against Extended spectrum beta-lactamase producing Escherichia coli 08-5; format: functional
Pseudomonas aeruginosa = assay: Antibacterial activity against Pseudomonas aeruginosa 17; format: functional
Shigella sonnei = assay: Antibacterial activity against Shigella sonnei 51592; format: functional
Salmonella typhi = assay: Antibacterial activity against Bacillus typhi 50035; format: functional, Salmonella enterica subsp. enterica serovar Typhi; details: Salmonella enterica
Enterobacter cloacae = assay: Antibacterial activity against Enterobacter cloacae 45301; format: functional
[11] = tested on: Acinetobacter calcoaceticus; assay: Antibacterial activity against Acinetobacter calcoaceticus 25001; format: functional
Klebsiella aerogenes = assay: Antibacterial activity against Enterobacter aerogenes 45102; format: functional
Serratia marcescens = assay: Antibacterial activity against Serratia marcescens 41002; format: functional
Morganella morganii = assay: Antibacterial activity against Morganella morganii 49086; format: functional
Providencia rettgeri = assay: Antibacterial activity against Proteus rettgeri 49006; format: functional
Proteus vulgaris = assay: Antibacterial activity against Proteus vulgaris 56; format: functional
Streptococcus pneumoniae [12] = assay: Antibacterial activity against Streptococcus pneumoniae ATCC 6301; format: functional
Streptococcus pneumoniae [13] = assay: Antibacterial activity against penicillin-resistant Streptococcus pneumoniae 08-2; format: functional
Klebsiella pneumoniae = assay: Antibacterial activity against Klebsiella pneumoniae ATCC 700603; format: functional
[14] = Cytotoxicity against african green monkey Vero cells after 24 hrs; format: cell-based; details: chlorocebus sabaeus

## C[C@H]1COc2c(N3CCN(C)CC3)c(F)cc3c(=O)c(C(=O)O)cn1c23.C[C@H]1COc2c(N3CCN(C)CC3)c(F)cc3c(=O)c(C(=O)O)cn1c23.O [LEVOFLOXACIN]
Staphylococcus aureus [1]
  MIC: 0.06 µg/mL
Staphylococcus aureus [2]
  MIC: 0.06 µg/mL
Staphylococcus aureus [3]
  MIC: 1 µg/mL
[4]
  MIC: 0.125 µg/mL
[5]
  MIC: 1 µg/mL
[6]
  MIC: 0.125 µg/mL
Enterococcus faecalis [7]
  MIC: 0.25 µg/mL
Enterococcus faecalis [8]
  MIC: 2 µg/mL
Streptococcus pyogenes
  MIC: 1 µg/mL
Escherichia coli [9]
  MIC: ≤ 0.03 µg/mL
Escherichia coli [10]
  MIC: 32 µg/mL
Pseudomonas aeruginosa
  MIC: 8 µg/mL
Shigella sonnei
  MIC: ≤ 0.03 µg/mL
Salmonella typhi
  MIC: ≤ 0.03 µg/mL
Enterobacter cloacae
  MIC: 0.06 µg/mL
[11]
  MIC: 0.25 µg/mL
Klebsiella aerogenes
  MIC: ≤ 0.03 µg/mL
Serratia marcescens
  MIC: 0.25 µg/mL
Morganella morganii
  MIC: ≤ 0.03 µg/mL
Providencia rettgeri
  MIC: 0.25 µg/mL
Proteus vulgaris
  MIC: ≤ 0.03 µg/mL

## CO/N=C1\CCN(c2c(F)cc3c(=O)c(C(=O)O)cn(C4CC4)c3c2F)CC1CN (racemic)
Staphylococcus aureus [1]
  MIC: 0.5 µg/mL (≈ 1.19 µM)
Staphylococcus aureus [2]
  MIC: 0.5 µg/mL (≈ 1.19 µM)
Staphylococcus aureus [3]
  MIC: 0.5 µg/mL (≈ 1.19 µM)
[4]
  MIC: 1 µg/mL (≈ 2.38 µM)
[5]
  MIC: 1 µg/mL (≈ 2.38 µM)
[6]
  MIC: 4 µg/mL (≈ 9.51 µM)
Streptococcus pneumoniae [12]
  MIC: 8 µg/mL (≈ 19 µM)
Streptococcus pneumoniae [13]
  MIC: 8 µg/mL (≈ 19 µM)
Enterococcus faecalis [7]
  MIC: 4 µg/mL (≈ 9.51 µM)
Enterococcus faecalis [8]
  MIC: 4 µg/mL (≈ 9.51 µM)
Streptococcus pyogenes
  MIC: 16 µg/mL (≈ 38.1 µM)
Escherichia coli [9]
  MIC: 1 µg/mL (≈ 2.38 µM)
Escherichia coli [10]
  MIC: > 128 µg/mL
Klebsiella pneumoniae
  MIC: 16 µg/mL (≈ 38.1 µM)
Pseudomonas aeruginosa
  MIC: 8 µg/mL (≈ 19 µM)
Shigella sonnei
  MIC: 1 µg/mL (≈ 2.38 µM)
Salmonella typhi
  MIC: 1 µg/mL (≈ 2.38 µM)
Enterobacter cloacae
  MIC: 32 µg/mL (≈ 76.1 µM)
[11]
  MIC: 2 µg/mL (≈ 4.76 µM)
Klebsiella aerogenes
  MIC: 1 µg/mL (≈ 2.38 µM)
Serratia marcescens
  MIC: 4 µg/mL (≈ 9.51 µM)
Morganella morganii
  MIC: 1 µg/mL (≈ 2.38 µM)
Providencia rettgeri
  MIC: 8 µg/mL (≈ 19 µM)
Proteus vulgaris
  MIC: 4 µg/mL (≈ 9.51 µM)

## CCn1cc(C(=O)O)c(=O)c2cc(F)c(N3CC/C(=N\OC)C(CN)C3)c(F)c21 (racemic)
Staphylococcus aureus [1]
  MIC: 4 µg/mL (≈ 9.79 µM)
Staphylococcus aureus [2]
  MIC: 2 µg/mL (≈ 4.9 µM)
Staphylococcus aureus [3]
  MIC: 8 µg/mL (≈ 19.6 µM)
[4]
  MIC: 8 µg/mL (≈ 19.6 µM)
[5]
  MIC: 16 µg/mL (≈ 39.2 µM)
[6]
  MIC: 4 µg/mL (≈ 9.79 µM)
Streptococcus pneumoniae [12]
  MIC: 32 µg/mL (≈ 78.4 µM)
Streptococcus pneumoniae [13]
  MIC: 16 µg/mL (≈ 39.2 µM)
Enterococcus faecalis [7]
  MIC: 8 µg/mL (≈ 19.6 µM)
Enterococcus faecalis [8]
  MIC: 32 µg/mL (≈ 78.4 µM)
Streptococcus pyogenes
  MIC: 64 µg/mL (≈ 157 µM)
Escherichia coli [9]
  MIC: 4 µg/mL (≈ 9.79 µM)
Escherichia coli [10]
  MIC: > 128 µg/mL
Klebsiella pneumoniae
  MIC: 128 µg/mL (≈ 313 µM)
Pseudomonas aeruginosa
  MIC: 32 µg/mL (≈ 78.4 µM)
Shigella sonnei
  MIC: 4 µg/mL (≈ 9.79 µM)
Salmonella typhi
  MIC: 4 µg/mL (≈ 9.79 µM)
Enterobacter cloacae
  MIC: > 128 µg/mL
[11]
  MIC: 16 µg/mL (≈ 39.2 µM)
Klebsiella aerogenes
  MIC: 8 µg/mL (≈ 19.6 µM)
Serratia marcescens
  MIC: 8 µg/mL (≈ 19.6 µM)
Morganella morganii
  MIC: 4 µg/mL (≈ 9.79 µM)
Providencia rettgeri
  MIC: 8 µg/mL (≈ 19.6 µM)
Proteus vulgaris
  MIC: 8 µg/mL (≈ 19.6 µM)
[14]
  CC50 at 24 h: > 500 µg/mL

## CCO/N=C1\CCN(c2c(F)cc3c(=O)c(C(=O)O)cn(C4CC4)c3c2F)CC1CN (racemic)
Staphylococcus aureus [1]
  MIC: 0.25 µg/mL (≈ 0.575 µM)
Staphylococcus aureus [2]
  MIC: 0.5 µg/mL (≈ 1.15 µM)
Staphylococcus aureus [3]
  MIC: 1 µg/mL (≈ 2.3 µM)
[4]
  MIC: 0.25 µg/mL (≈ 0.575 µM)
[5]
  MIC: 2 µg/mL (≈ 4.6 µM)
[6]
  MIC: 0.25 µg/mL (≈ 0.575 µM)
Streptococcus pneumoniae [12]
  MIC: 8 µg/mL (≈ 18.4 µM)
Streptococcus pneumoniae [13]
  MIC: 4 µg/mL (≈ 9.21 µM)
Enterococcus faecalis [7]
  MIC: 2 µg/mL (≈ 4.6 µM)
Enterococcus faecalis [8]
  MIC: 2 µg/mL (≈ 4.6 µM)
Streptococcus pyogenes
  MIC: 32 µg/mL (≈ 73.7 µM)
Escherichia coli [9]
  MIC: 1 µg/mL (≈ 2.3 µM)
Escherichia coli [10]
  MIC: > 128 µg/mL
Klebsiella pneumoniae
  MIC: 32 µg/mL (≈ 73.7 µM)
Pseudomonas aeruginosa
  MIC: 16 µg/mL (≈ 36.8 µM)
Shigella sonnei
  MIC: 0.5 µg/mL (≈ 1.15 µM)
Salmonella typhi
  MIC: 0.5 µg/mL (≈ 1.15 µM)
Enterobacter cloacae
  MIC: > 128 µg/mL
[11]
  MIC: 2 µg/mL (≈ 4.6 µM)
Klebsiella aerogenes
  MIC: 2 µg/mL (≈ 4.6 µM)
Serratia marcescens
  MIC: 4 µg/mL (≈ 9.21 µM)
Morganella morganii
  MIC: 4 µg/mL (≈ 9.21 µM)
Providencia rettgeri
  MIC: 8 µg/mL (≈ 18.4 µM)
Proteus vulgaris
  MIC: 4 µg/mL (≈ 9.21 µM)
[14]
  CC50 at 24 h: 257 µg/mL (≈ 591 µM)

## O=C(O)c1cn(C2CC2)c2cc(N3CCNCC3)c(F)cc2c1=O [CIPROFLOXACIN]
Staphylococcus aureus [1]
  MIC: 0.25 µg/mL (≈ 0.754 µM)
Staphylococcus aureus [3]
  MIC: 4 µg/mL (≈ 12.1 µM)
[4]
  MIC: 0.25 µg/mL (≈ 0.754 µM)
[5]
  MIC: 2 µg/mL (≈ 6.04 µM)
[6]
  MIC: 0.25 µg/mL (≈ 0.754 µM)
Streptococcus pneumoniae [12]
  MIC: 1 µg/mL (≈ 3.02 µM)
Streptococcus pneumoniae [13]
  MIC: 1 µg/mL (≈ 3.02 µM)
Enterococcus faecalis [7]
  MIC: 0.5 µg/mL (≈ 1.51 µM)
Enterococcus faecalis [8]
  MIC: 1 µg/mL (≈ 3.02 µM)
Streptococcus pyogenes
  MIC: 1 µg/mL (≈ 3.02 µM)
Escherichia coli [9]
  MIC: ≤ 0.03 µg/mL
Escherichia coli [10]
  MIC: 128 µg/mL (≈ 386 µM)
Klebsiella pneumoniae
  MIC: 0.5 µg/mL (≈ 1.51 µM)
Pseudomonas aeruginosa
  MIC: 16 µg/mL (≈ 48.3 µM)
Shigella sonnei
  MIC: ≤ 0.03 µg/mL
Salmonella typhi
  MIC: ≤ 0.03 µg/mL
[11]
  MIC: 1 µg/mL (≈ 3.02 µM)
Klebsiella aerogenes
  MIC: ≤ 0.03 µg/mL
Serratia marcescens
  MIC: 0.25 µg/mL (≈ 0.754 µM)
Morganella morganii
  MIC: ≤ 0.03 µg/mL
Providencia rettgeri
  MIC: ≤ 0.03 µg/mL
Proteus vulgaris
  MIC: ≤ 0.03 µg/mL

## CO/N=C1\CCN(c2c(F)cc3c(=O)c(C(=O)O)cn(C4CC4)c3c2OC(F)F)CC1CN (racemic)
Staphylococcus aureus [1]
  MIC: 0.125 µg/mL (≈ 0.267 µM)
Staphylococcus aureus [2]
  MIC: 0.25 µg/mL (≈ 0.534 µM)
Staphylococcus aureus [3]
  MIC: 1 µg/mL (≈ 2.13 µM)
[4]
  MIC: 0.5 µg/mL (≈ 1.07 µM)
[5]
  MIC: 1 µg/mL (≈ 2.13 µM)
[6]
  MIC: 0.5 µg/mL (≈ 1.07 µM)
Streptococcus pneumoniae [12]
  MIC: 4 µg/mL (≈ 8.54 µM)
Streptococcus pneumoniae [13]
  MIC: 2 µg/mL (≈ 4.27 µM)
Enterococcus faecalis [7]
  MIC: 1 µg/mL (≈ 2.13 µM)
Enterococcus faecalis [8]
  MIC: 4 µg/mL (≈ 8.54 µM)
Streptococcus pyogenes
  MIC: 4 µg/mL (≈ 8.54 µM)
Escherichia coli [9]
  MIC: 1 µg/mL (≈ 2.13 µM)
Escherichia coli [10]
  MIC: > 128 µg/mL
Klebsiella pneumoniae
  MIC: 32 µg/mL (≈ 68.3 µM)
Pseudomonas aeruginosa
  MIC: 8 µg/mL (≈ 17.1 µM)
Shigella sonnei
  MIC: 16 µg/mL (≈ 34.2 µM)
Salmonella typhi
  MIC: 0.5 µg/mL (≈ 1.07 µM)
Enterobacter cloacae
  MIC: 2 µg/mL (≈ 4.27 µM)
[11]
  MIC: 2 µg/mL (≈ 4.27 µM)
Klebsiella aerogenes
  MIC: 2 µg/mL (≈ 4.27 µM)
Serratia marcescens
  MIC: 8 µg/mL (≈ 17.1 µM)
Morganella morganii
  MIC: 4 µg/mL (≈ 8.54 µM)
Providencia rettgeri
  MIC: 4 µg/mL (≈ 8.54 µM)
Proteus vulgaris
  MIC: 4 µg/mL (≈ 8.54 µM)
[14]
  CC50 at 24 h: 335 µg/mL (≈ 715 µM)
